{"source": "patent US9580444B2", "about": "“Polycyclic pyrazolinone derivative and herbicide comprising same as effective component thereof” (priority 2013, dated 2017)", "format_in_all_cases": "in vivo", "key": {"[1]": {"system": "other annual broad leaf weeds (Lindernia procumbens, Rotala indica, Elatine triandra)", "experiment": "Test Example-1: herbicidal effect by a treatment before weeds are generated under submerged conditions", "conditions": "500 g a.i/ha, pre-emergence treatment, about 15 days after treatment, score 0-5", "in_short": "(§1)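 Paddy soil in cups was puddled, seeded with the weeds and kept flooded; compound as wettable powder or emulsifiable concentrate was diluted and applied into the water on the seeding day at a set dosage. Effect was scored about 15 days later on a 0–5 scale.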"}, "[2]": {"system": "Eleocharis acicularis (needle spikerush)", "experiment": "Test Example-1: herbicidal effect by a treatment before weeds are generated under submerged conditions", "conditions": "500 g a.i/ha, pre-emergence treatment, about 15 days after treatment, score 0-5", "in_short": "as §1"}, "[3]": {"system": "Echinochloa oryzicola (barnyard grass)", "experiment": "Test Example-1: herbicidal effect by a treatment before weeds are generated under submerged conditions", "conditions": "500 g a.i/ha, pre-emergence treatment, about 15 days after treatment, score 0-5", "in_short": "as §1"}, "[4]": {"system": "Cyperus difformis (smallflower umbrella plant)", "experiment": "Test Example-1: herbicidal effect by a treatment before weeds are generated under submerged conditions", "conditions": "500 g a.i/ha, pre-emergence treatment, about 15 days after treatment, score 0-5", "in_short": "as §1"}, "[5]": {"system": "Monochoria vaginalis (monochoria)", "experiment": "Test Example-1: herbicidal effect by a treatment before weeds are generated under submerged conditions", "conditions": "500 g a.i/ha, pre-emergence treatment, about 15 days after treatment, score 0-5", "in_short": "as §1"}, "[6]": {"system": "Scirpus juncoides (bulrush)", "experiment": "Test Example-1: herbicidal effect by a treatment before weeds are generated under submerged conditions", "conditions": "500 g a.i/ha, pre-emergence treatment, about 15 days after treatment, score 0-5", "in_short": "as §1"}, "corn": {"system": "corn", "experiment": "Test Example-4: phytotoxicity by a foliage treatment after weeds are generated under upland field conditions", "conditions": "500 g a.i/ha, foliage treatment after emergence, about 14 days after treatment, score 0-5", "in_short": "(§2)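 Weed seeds were sown in upland soil, covered with about 0.5 cm soil and grown 14 days with watering. Diluted wettable powder or emulsifiable concentrate was then sprayed uniformly on foliage at a set dosage in 4000 L water/ha. Weed control and corn injury were scored 0–5 about 14 days later.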"}, "[7]": {"system": "Chenopodium album (common lambsquarters)", "experiment": "Test Example-4: herbicidal effect by a foliage treatment after weeds are generated under upland field conditions", "conditions": "500 g a.i/ha, foliage treatment after emergence, about 14 days after treatment, score 0-5", "in_short": "as §2"}, "[8]": {"system": "Amaranthus viridis (green amaranthus)", "experiment": "Test Example-4: herbicidal effect by a foliage treatment after weeds are generated under upland field conditions", "conditions": "500 g a.i/ha, foliage treatment after emergence, about 14 days after treatment, score 0-5", "in_short": "as §2"}, "[9]": {"system": "Abutilon theophrasti (velvetleaf)", "experiment": "Test Example-4: herbicidal effect by a foliage treatment after weeds are generated under upland field conditions", "conditions": "500 g a.i/ha, foliage treatment after emergence, about 14 days after treatment, score 0-5", "in_short": "as §2"}}, "data": [{"molecule": "O=c1c(-c2ccc(Cl)c(OC3CCCC3)c2)c(Cl)n2n1CCCC2", "note": "[Example 1-52]", "values": [{"measurement": "Herbicidal effect Broadleaf weed", "setting": "[1]", "result": "5 (Herbicidal effect/phytotoxicity was 90% or greater)"}, {"measurement": "Herbicidal effect Eleocharis acicularis", "setting": "[2]", "result": "5 (Herbicidal effect/phytotoxicity was 90% or greater)"}, {"measurement": "Herbicidal effect Echinochloa oryzicola", "setting": "[3]", "result": "5 (Herbicidal effect/phytotoxicity was 90% or greater)"}, {"measurement": "Herbicidal effect Cyperus difformis", "setting": "[4]", "result": "5 (Herbicidal effect/phytotoxicity was 90% or greater)"}, {"measurement": "Herbicidal effect Monochoria vaginalis", "setting": "[5]", "result": "5 (Herbicidal effect/phytotoxicity was 90% or greater)"}, {"measurement": "Herbicidal effect Scirpus juncoides", "setting": "[6]", "result": "5 (Herbicidal effect/phytotoxicity was 90% or greater)"}, {"measurement": "Phytotoxicity Corn", "setting": "corn", "result": "0 (Herbicidal effect/phytotoxicity was 0% to 10%)"}, {"measurement": "Herbicidal effect Chenopodium album", "setting": "[7]", "result": "5 (Herbicidal effect/phytotoxicity was 90% or greater)"}, {"measurement": "Herbicidal effect Amaranthus viridis", "setting": "[8]", "result": "5 (Herbicidal effect/phytotoxicity was 90% or greater)"}, {"measurement": "Herbicidal effect Abutilon theophrast", "setting": "[9]", "result": "5 (Herbicidal effect/phytotoxicity was 90% or greater)"}]}, {"molecule": "C#CCOc1cc(-c2c(Cl)n3n(c2=O)CCCC3)ccc1Cl", "note": "[Example 1-62]", "values": [{"measurement": "Herbicidal effect Broadleaf weed", "setting": "[1]", "result": "5 (Herbicidal effect/phytotoxicity was 90% or greater)"}, {"measurement": "Herbicidal effect Eleocharis acicularis", "setting": "[2]", "result": "5 (Herbicidal effect/phytotoxicity was 90% or greater)"}, {"measurement": "Herbicidal effect Echinochloa oryzicola", "setting": "[3]", "result": "5 (Herbicidal effect/phytotoxicity was 90% or greater)"}, {"measurement": "Herbicidal effect Cyperus difformis", "setting": "[4]", "result": "5 (Herbicidal effect/phytotoxicity was 90% or greater)"}, {"measurement": "Herbicidal effect Monochoria vaginalis", "setting": "[5]", "result": "5 (Herbicidal effect/phytotoxicity was 90% or greater)"}, {"measurement": "Herbicidal effect Scirpus juncoides", "setting": "[6]", "result": "5 (Herbicidal effect/phytotoxicity was 90% or greater)"}, {"measurement": "Phytotoxicity Corn", "setting": "corn", "result": "0 (Herbicidal effect/phytotoxicity was 0% to 10%)"}, {"measurement": "Herbicidal effect Chenopodium album", "setting": "[7]", "result": "5 (Herbicidal effect/phytotoxicity was 90% or greater)"}, {"measurement": "Herbicidal effect Amaranthus viridis", "setting": "[8]", "result": "5 (Herbicidal effect/phytotoxicity was 90% or greater)"}, {"measurement": "Herbicidal effect Abutilon theophrast", "setting": "[9]", "result": "5 (Herbicidal effect/phytotoxicity was 90% or greater)"}]}, {"molecule": "C#CCOc1cc(-c2c(Cl)n3n(c2=O)CCCCC3)ccc1Cl", "note": "[Example 1-63]", "values": [{"measurement": "Herbicidal effect Broadleaf weed", "setting": "[1]", "result": "5 (Herbicidal effect/phytotoxicity was 90% or greater)"}, {"measurement": "Herbicidal effect Eleocharis acicularis", "setting": "[2]", "result": "5 (Herbicidal effect/phytotoxicity was 90% or greater)"}, {"measurement": "Herbicidal effect Echinochloa oryzicola", "setting": "[3]", "result": "5 (Herbicidal effect/phytotoxicity was 90% or greater)"}, {"measurement": "Herbicidal effect Cyperus difformis", "setting": "[4]", "result": "5 (Herbicidal effect/phytotoxicity was 90% or greater)"}, {"measurement": "Herbicidal effect Monochoria vaginalis", "setting": "[5]", "result": "5 (Herbicidal effect/phytotoxicity was 90% or greater)"}, {"measurement": "Herbicidal effect Scirpus juncoides", "setting": "[6]", "result": "5 (Herbicidal effect/phytotoxicity was 90% or greater)"}, {"measurement": "Phytotoxicity Corn", "setting": "corn", "result": "1 (Herbicidal effect/phytotoxicity was 10% to 30%)"}, {"measurement": "Herbicidal effect Chenopodium album", "setting": "[7]", "result": "5 (Herbicidal effect/phytotoxicity was 90% or greater)"}, {"measurement": "Herbicidal effect Amaranthus viridis", "setting": "[8]", "result": "5 (Herbicidal effect/phytotoxicity was 90% or greater)"}, {"measurement": "Herbicidal effect Abutilon theophrast", "setting": "[9]", "result": "5 (Herbicidal effect/phytotoxicity was 90% or greater)"}]}, {"molecule": "COc1cc(-c2c(Cl)n3n(c2=O)CCCC3)c(F)cc1F", "note": "[Example 1-87]", "values": [{"measurement": "Herbicidal effect Broadleaf weed", "setting": "[1]", "result": "5 (Herbicidal effect/phytotoxicity was 90% or greater)"}, {"measurement": "Herbicidal effect Eleocharis acicularis", "setting": "[2]", "result": "5 (Herbicidal effect/phytotoxicity was 90% or greater)"}, {"measurement": "Herbicidal effect Echinochloa oryzicola", "setting": "[3]", "result": "5 (Herbicidal effect/phytotoxicity was 90% or greater)"}, {"measurement": "Herbicidal effect Cyperus difformis", "setting": "[4]", "result": "5 (Herbicidal effect/phytotoxicity was 90% or greater)"}, {"measurement": "Herbicidal effect Monochoria vaginalis", "setting": "[5]", "result": "5 (Herbicidal effect/phytotoxicity was 90% or greater)"}, {"measurement": "Herbicidal effect Scirpus juncoides", "setting": "[6]", "result": "5 (Herbicidal effect/phytotoxicity was 90% or greater)"}, {"measurement": "Phytotoxicity Corn", "setting": "corn", "result": "2 (Herbicidal effect/phytotoxicity was 30% to 50%)"}, {"measurement": "Herbicidal effect Chenopodium album", "setting": "[7]", "result": "5 (Herbicidal effect/phytotoxicity was 90% or greater)"}, {"measurement": "Herbicidal effect Amaranthus viridis", "setting": "[8]", "result": "5 (Herbicidal effect/phytotoxicity was 90% or greater)"}, {"measurement": "Herbicidal effect Abutilon theophrast", "setting": "[9]", "result": "5 (Herbicidal effect/phytotoxicity was 90% or greater)"}]}]}
